The source of these data is ChEMBL document CHEMBL3045032, “Triptolide suppresses lipopolysaccharide-induced activity of toll-like receptor 4 in mouse macrophage cell line RAW 264.7” (Med Chem Res, 2012).

Format in all cases: functional, cell-based
Assay [1] concerns RAW264.7. Put plainly: Effect on HSP70 mRNA level in Mus musculus (mouse) RAW264.7 cells pretreated for 1 hr before treatment with 100 ng/ml LPS for 6 hr by RT-PCR analysis.
The test system of assay [2] is RAW264.7. Put plainly: Inhibition of LPS-induced IL-6 level in Mus musculus (mouse) RAW264.7 cells pretreated for 1 hr before treatment with 100 ng/ml LPS for 6 hr by ELISA.
Assay [3] concerns RAW264.7. Briefly: Effect on HSP70 protein level in Mus musculus (mouse) RAW264.7 cells pretreated for 1 hr before treatment with 100 ng/ml LPS for 6 hr by RT-PCR analysis.
The test system of assay [4] is RAW264.7. Briefly: Inhibition of LPS-induced TNF-alpha level in Mus musculus (mouse) RAW264.7 cells pretreated for 1 hr before treatment with 100 ng/ml LPS for 6 hr by ELISA. (ELISA stands for enzyme-linked immunosorbent assay.)
Assay [5] relates to RAW264.7. Briefly: Inhibition of LPS-induced TLR4 expression in Mus musculus (mouse) RAW264.7 cells pretreated for 1 hr before treatment with 100 ng/ml LPS for 6 hr by RT-PCR analysis.
For assay [6], the system named is RAW264.7. Put plainly: Inhibition of LPS-induced TLR4 expression in Mus musculus (mouse) RAW264.7 cells pretreated for 1 hr before treatment with 100 ng/ml LPS for 6 hr by Western blot analysis. On the technique in general: Immunoblotting shows a protein as a band on a membrane.

Activity calls are given as the source filed them. No cut-off for these calls is given here.

As to `CC(C)[C@]12O[C@H]1[C@@H]1O[C@]13[C@]1(O[C@H]1C[C@H]1C4=C(CC[C@@]13C)C(=O)OC4)[C@@H]2O`, the result in the assay on RAW264.7 [1] and in the assay on RAW264.7 [3] was inactive. In addition, the inhibition entry with RAW264.7 [2], with RAW264.7 [4], with RAW264.7 [5] and in the assay on RAW264.7 [6] was “Dose-dependent effect” throughout.
